Measurements: PMC5154303, “Flavonol and imidazole derivatives block HPV16 E6 activities and reactivate apoptotic pathways in HPV^+ cells” (Cell Death & Disease, 2016)

How the values were obtained:
[1] = molecular target: T1, GST-E6/His-E6AP (Human papillomavirus type 16, UniProt P03126); test: AlphaScreen bead-based binding assay GST-E6/His-E6AP; set-up: species or system HPV 16
T1 construct: made in house
Experimental: Figure 2 3-(1H-indol-1yl)propan-1-amine (1), three benzimidazole derivatives (2–4), and spinacine (5) inhibit protein–protein interactions. Five compounds at the indicated concentrations (1.4 μM–3.2 mM) were tested using our bead-based screening assay for their ability to inhibit three different protein/protein interactions: (a) GST-E6/His-caspase 8; (b) GST-E6/HisE6AP; and (c) GST-caspase 8/His-caspase 8. Binding in the presence of 1.4 μM of the test compound was set at 100%. Experiments were performed in triplicate, and error bars indicate the S.D.
The construction of the pGEX-E6, pTriEx-E6AP, and pTriEx-Caspase-8 DED plasmids has been reported.[33] Expression and purification of GSTE6, His-E6AP, and His-Caspase-8 DED were carried out as previously described.[33], [37] GST-tagged and His-tagged proteins were diluted into GST dilution buffer (PBS pH 8.0, 5% glycerol, 2 mM DTT) and His dilution buffer (20 mM Hepes pH 7.4, 150 mM NaCl, 2 mMKCl, 5% glycerol, 2 mM DTT), respectively. Protein concentration was measured using Coomassie Plus – The Better Bradford Assay Reagent (Thermo Scientific, Waltham, MA, USA). Purity of the isolated proteins was estimated following separation by sodium dodecyl sulfate-polyacrylamide gel electrophoresis (SDS-PAGE) and Coomassie staining.
AlphaScreen Technology was used to assess the interactions between GST-E6, GST-caspase 8, His-E6AP, and His-caspase 8. Binding assays were performed in white 384-well plates (Perkin-Elmer) in a total volume of 25 μl as previously described.[33] Briefly, 5 μl (50 ng) of GST-E6 and 5 μl (87.5 ng) of His-caspase 8 were included in each reaction mixture with 5 μl blocking buffer (0.5 mg BSA, 0.5% Tween 20 in PBS) in the absence or presence of 10 μM of each test chemical. Members of the library were present at 10 μM in DMSO. After a 1-h incubation of the mixture at room temperature, 5 μl donor beads and 5 μl acceptor beads (Perkin-Elmer) were added to each well according to the manufacturer's protocol. The mixture was incubated in the dark at room temperature overnight, and the emitted signal was detected using the Envision Multilabel plate reader (Perkin-Elmer). In the presence of test chemicals, the binding affinity was calculated as a percentage of the binding in the presence of carrier only (DMSO).

[2] = system: C33A cells; test: TRAIL-mediated apoptosis in HPV− C33A cells (MTT); format: cell-based, human; conditions: 100 μM myricetin pretreatment 4 h, TRAIL + cycloheximide
Experimental: Figure 5 Myricetin and spinacine (5) can re-sensitize HPV^+, but not HPV^−, cells to treatment with TRAIL. SiHa (2 × 10^4 cells per well) and C33A cells (1 × 10^4 cells per well) were seeded into a 96-well plate and allowed to incubate overnight, and then cells were pretreated in the presence or absence of (a) myricetin (100 μM) or (b) spinacine (50 μM) for 4 h. The indicated concentration of TRAIL along with cycloheximide (5 μg/ml) was added, and the cells were allowed to incubate overnight. Cell viability was measured by MTT assay, and the viability of cells untreated with TRAIL was set at 100%. Experiments were performed in triplicate, and error bars indicate the S.D.
The extracellular domain of human TRAIL was cloned into a pTriEx expression plasmid containing N-terminal Hisx6 tag. His-TRAIL was expressed in the E. coli BL-21 pLys strain and purified as previously described. Doxorubicin and cisplatin were purchased from Sigma. His-TRAIL, doxorubicin, and cisplatin were diluted in PBS to the desired concentration before using. […] All experiments were repeated at least three times (three biological replicates, carried out on different days), with each experimental group measured in triplicate within each of these individual experiments. […]

T1 sequence (P03126 whole entry): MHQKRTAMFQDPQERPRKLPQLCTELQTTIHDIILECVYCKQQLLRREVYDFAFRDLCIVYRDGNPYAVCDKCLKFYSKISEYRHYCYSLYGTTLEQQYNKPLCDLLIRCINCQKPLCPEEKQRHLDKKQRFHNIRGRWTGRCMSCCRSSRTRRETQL

Structure (SMILES)	EC50 [1] [µM]	sensitivity of C33A cells to TRAIL-mediated apoptosis [2]
O=C(O)C1Cc2[nH]cnc2CN1 (centres unmarked) [Spinacine (5), 4,5,6,7-tetrahydro-1H-imidazo[4,5–c]pyridine-6-carboxylic acid]	20	
O=c1c(O)c(-c2cc(O)c(O)c(O)c2)oc2cc(O)cc(O)c12 [Myricetin, myricetin, reference compound]		remained resistant
